The results in this text go back to article PMC9172283 (Antiviral Research, 2022).

As usually defined, the CC50 is the concentration giving 50% cytotoxicity. By IC50 is commonly meant the concentration needed to halve the response being measured. For orientation: EC50 means the concentration at which the effect is half-maximal.

The subject of series [1] is SARS-CoV-2 M^pro (NanoLuc-nsp4-M^pro fusion protein). It is filed as cell-based.
Series [2] in a line: MTT cell viability assay in Vero E6 cells. The format is cell-based. The settings on record: African green monkey. For orientation: Tetrazolium dyes change colour on reduction, which living cells bring about.
Series [3] has as its system SARS-CoV-2. The experiment in a line: Plaque reduction assay. It is filed as cell-based, SARS-CoV-2/NL/2020 strain. Particulars: ratio between CC50 and EC50; SARS-CoV-2, Vero E6 cells. (In general: In a plaque reduction assay, fewer plaques than in the control indicate reduced infectivity or spread.)
The subject of the next series is HCoV-OC43. The experiment in a line: Plaque reduction assay against HCoV-OC43 in MRC-5 cells. The format is cell-based. The settings on record: infected MRC-5 cells.
The subject of series [4] is SARS-CoV-2. The experiment in a line: Virus yield reduction assay of SARS-CoV-2 in Calu-3 cells. The format is cell-based. The settings on record: MOI 0.01, 36 h p.i., titration on Vero E6.
The target of another series is SARS-CoV-2 M^pro (Severe acute respiratory syndrome coronavirus 2, UniProt P0DTD1). The experiment in a line: FRET-based SARS-CoV-2 M^pro activity assay in vitro. It is filed as biochemical. Particulars: for Inhibitory effect on M^pro catalytic activity at fixed concentration: 100 μM, cut-off 50% of inhibition; for Fold increase of inhibitory potency against M^pro compared to parental hit 7: compared to hit 7.

The next series concerns HCoV-229E. The experiment in a line: microbe, parasite or virus in culture. The format is cell-based. The settings on record: for EC50: Human coronavirus 229E, MRC5, 144 h, read-out: HCoV-229E EC50.
A short description of series [5]: MTT cell viability assay in MRC-5 cells. The format is cell-based. The settings on record: human.
Series [6] has as its system SARS-CoV-2. The experiment in a line: Time-of-addition experiments with SARS-CoV-2 in Vero E6 cells. It is filed as cell-based. Particulars: 50 μM, added at +4 h p.i.

`CC(C)(C)NC(=O)N[C@H](C(=O)N1C[C@H]2[C@@H]([C@H]1C(=O)NC(CC1CCC1)C(=O)C(N)=O)C2(C)C)C(C)(C)C` (stereo partly drawn) [BOC, Boceprevir, reference compound]: in series [1], the “Inhibition of proteolytic cleavage of NanoLuc-nsp4-M^pro in cells” value (from here on “Inhibition”) is reported as “not detected”. Moreover, the CC50 at 72 h in [2] is more than 500 µM.
For the molecule `O=C(Nc1ccc2c(c1)OCO2)c1nnc(C(=O)N2CCCC(C(=O)NCc3ccccc3)C2)s1` (stereo not drawn) [Compound 5], the “SI, Selectivity Index” value in the series with SARS-CoV-2 [3] came to 29. Moreover, in [2], the CC50 at 72 h was 207 ± 14 µM. For the same molecule, the “Activity towards HCoV-OC43” value in the series with HCoV-OC43 is “retained activity”. The “SARS-CoV-2 titers in supernatants of infected and treated Calu-3 cells” value (“SARS-CoV-2 titers in supernatants” for short) in the series on SARS-CoV-2 [4] is recorded as “significantly reduced SARS-CoV-2 titers”. For the same molecule, on SARS-CoV-2 M^pro, half-maximal inhibition (IC50) required 29 ± 3.7 µM and the “Inhibitory effect on M^pro catalytic activity at fixed concentration” value was “exerted an inhibitory effect”. Besides, in the series on HCoV-229E, the “Activity towards HCoV-229E” value was “retained activity” and the EC50 stood at 10.4 ± 4.1 µM. In [5], this molecule registered a CC50 at 72 h of 100 ± 11.9 µM.
Turning to `NC(=O)c1c(NC(=O)c2cnn3c(C(F)(F)F)cc(-c4ccccc4)nc23)sc2c1CCCC2` [Compound 25], in the series on SARS-CoV-2 [3], the “SI, Selectivity Index” value is reported as more than 31. The cytotoxic concentration (CC50) at 72 h in series [2] was more than 250 µM. In the series on HCoV-OC43, the “Activity towards HCoV-OC43” value was “retained activity”. In the series on SARS-CoV-2 [4], the “SARS-CoV-2 titers in supernatants” value is given as “significantly reduced SARS-CoV-2 titers”. At SARS-CoV-2 M^pro, the midpoint of inhibition, the IC50, lay at 26.6 ± 7.4 µM and the “Inhibitory effect on M^pro catalytic activity at fixed concentration” value is on record as “exerted an inhibitory effect”. The EC50 in the series with HCoV-229E is more than 25 µM. In series [5], this molecule yielded a half-maximal cytotoxic concentration (CC50) at 72 h of more than 250 µM.
As to `CC(C)[C@H](NC(=O)c1ccccc1NC(=O)c1ccccc1)C(=O)N[C@H](CO)C(C)C` [Compound 36, 2-Benzamido-N-((S)-1-(((S)-1-hydroxy-3-methylbutan-2-yl)amino)-3-methyl-1-oxobutan-2-yl)benzamide], in series [1], the “Inhibition” value is given as “dose-dependent inhibition of the proteolytic cleavage”. For the same molecule, in the series on SARS-CoV-2 [3], the “SI, Selectivity Index” value is given as more than 192. In [2], this molecule returned a 50% cytotoxic concentration (CC50) at 72 h of more than 250 µM. Besides, in the series on SARS-CoV-2 [6], the “Time-of-addition: effect of addition at 4 h p.i.” value is reported as “still exerted an antiviral effect”. Besides, the “SARS-CoV-2 titers in supernatants” value in the series on SARS-CoV-2 [4] is “confirmed active”. In addition, on SARS-CoV-2 M^pro, 42.9 ± 8.3 µM corresponded to half-maximal inhibition (IC50) and the “Fold increase of inhibitory potency against M^pro compared to parental hit 7” value was more than 2 fold.
In the case of `CC(C)[C@H](NC(=O)c1ccccc1NC(=O)c1ccccn1)C(=O)N[C@H](CO)C(C)C` [Compound 37, N-(2-(((S)-1-(((S)-1-Hydroxy-3-methylbutan-2-yl)amino)-3-methyl-1-oxobutan-2-yl)carbamoyl)phenyl)picolinamide], the “Inhibition” value in series [1] is on record as “dose-dependent inhibition of the proteolytic cleavage”. Further, in the series on SARS-CoV-2 [3], the “SI, Selectivity Index” value is more than 119. Also, the 50% cytotoxic concentration (CC50) at 72 h in [2] was more than 250 µM. Also, in the series with SARS-CoV-2 [6], the “Time-of-addition: effect of addition at 4 h p.i.” value is given as “still exerted an antiviral effect”. Further, in the series with SARS-CoV-2 [4], the “SARS-CoV-2 titers in supernatants” value was “confirmed active”. At SARS-CoV-2 M^pro, the IC50 was 41.3 ± 7.6 µM and the “Fold increase of inhibitory potency against M^pro compared to parental hit 7” value is on record as more than 2 fold.
